Measurements taken from patent publication US20070004649A1, “Anti-influenza virus compound comprising biflavonoid-sialic acid glycoside” (The Kitasato Institute, priority 2003, published 2007).
Like-named read-outs stand apart in the source and are kept apart here.

Legend:
[1] = tested on: MDCK (Madin-Darby canine kidney) cells; experiment: Cytotoxicity in non-infected MDCK cells (MTT method); settings: 12.5 μg/mL, three days
[2] = molecular target: A/Guizhou/54/89 virus sialidase (Influenza A virus, UniProt I6UMM5); experiment: Inhibitory activity against influenza A/Guizhou/54/89 virus sialidase (4-MU-NeuAc substrate, HA vaccine as enzyme); format: biochemical, influenza virus A/Guizhou/54/89 (H3N2 subtype)
A/Guizhou/54/89 virus sialidase, sequence (I6UMM5 1-469): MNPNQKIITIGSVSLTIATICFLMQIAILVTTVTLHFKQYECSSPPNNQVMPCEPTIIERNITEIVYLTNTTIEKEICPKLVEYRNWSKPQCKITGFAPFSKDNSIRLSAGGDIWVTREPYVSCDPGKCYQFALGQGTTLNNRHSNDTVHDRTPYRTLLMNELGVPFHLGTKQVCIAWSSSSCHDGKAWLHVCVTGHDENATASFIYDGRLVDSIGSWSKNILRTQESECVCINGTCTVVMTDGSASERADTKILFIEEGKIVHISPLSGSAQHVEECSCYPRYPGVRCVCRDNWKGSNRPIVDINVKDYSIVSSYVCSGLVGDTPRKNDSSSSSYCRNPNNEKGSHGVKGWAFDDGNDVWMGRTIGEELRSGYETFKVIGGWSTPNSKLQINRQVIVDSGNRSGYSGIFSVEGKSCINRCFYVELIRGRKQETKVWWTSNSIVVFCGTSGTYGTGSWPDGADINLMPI

[3] = molecular target: A/PR/8/34 virus sialidase (Influenza A virus, UniProt P03468); experiment: Inhibitory activity against influenza A/PR/8/34 virus sialidase (4-MU-NeuAc substrate, HA vaccine as enzyme); format: biochemical, influenza virus A/PR/8/34 (H1N1 subtype)
A/PR/8/34 virus sialidase, sequence (P03468 whole entry): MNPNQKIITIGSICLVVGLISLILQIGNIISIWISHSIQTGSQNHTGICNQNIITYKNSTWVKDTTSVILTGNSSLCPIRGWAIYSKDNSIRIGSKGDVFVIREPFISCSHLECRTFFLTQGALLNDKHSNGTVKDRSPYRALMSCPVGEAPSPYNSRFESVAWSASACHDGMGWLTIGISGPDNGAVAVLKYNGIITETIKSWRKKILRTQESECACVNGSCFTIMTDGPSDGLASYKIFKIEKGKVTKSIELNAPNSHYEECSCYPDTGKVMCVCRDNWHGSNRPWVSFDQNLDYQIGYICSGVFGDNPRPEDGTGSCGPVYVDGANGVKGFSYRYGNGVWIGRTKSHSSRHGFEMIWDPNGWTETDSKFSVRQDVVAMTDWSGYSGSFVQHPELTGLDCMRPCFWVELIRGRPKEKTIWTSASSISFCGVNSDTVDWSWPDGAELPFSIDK

[4] = molecular target: B/Ibaraki/2/85 virus sialidase (Influenza B virus, UniProt P16207); experiment: Inhibitory activity against influenza B/Ibaraki/2/85 virus sialidase (4-MU-NeuAc substrate, HA vaccine as enzyme); format: biochemical, influenza virus B/Ibaraki/2/85
B/Ibaraki/2/85 virus sialidase, sequence (P16207 whole entry): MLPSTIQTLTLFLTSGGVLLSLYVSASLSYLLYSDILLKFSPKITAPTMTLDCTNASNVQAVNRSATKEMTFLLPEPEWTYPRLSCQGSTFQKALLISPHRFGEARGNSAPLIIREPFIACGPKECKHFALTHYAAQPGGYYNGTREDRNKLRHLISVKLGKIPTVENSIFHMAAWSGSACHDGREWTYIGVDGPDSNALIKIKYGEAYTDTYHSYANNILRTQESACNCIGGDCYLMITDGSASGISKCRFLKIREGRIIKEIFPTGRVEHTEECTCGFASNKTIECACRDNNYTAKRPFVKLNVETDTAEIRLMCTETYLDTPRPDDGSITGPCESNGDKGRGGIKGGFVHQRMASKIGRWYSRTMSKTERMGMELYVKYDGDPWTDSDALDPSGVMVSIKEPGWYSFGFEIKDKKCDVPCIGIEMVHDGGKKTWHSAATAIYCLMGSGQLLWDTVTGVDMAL

influenza virus [5] = settings: cited from earlier work
influenza virus [6] = settings: cited from earlier work; remark: listed apart in the source
[7] = final concentration of 10 μg/mL

## COc1ccc(-c2cc(=O)c3c(O)cc(O)c(-c4cc(-c5cc(=O)c6c(O)cc(O)cc6o5)ccc4OC)c3o2)cc1 [isoginkgetin]
[1]
  cytotoxicity (cell viability by the MTT method): showed cytotoxicity

## COc1cc(O)c2c(=O)cc(-c3ccc(OC)c(-c4c(OC5(C(=O)O)CC(O)C(NC(C)=O)C(C(O)C(O)CO)O5)cc(O)c5c(=O)cc(-c6ccc(OC7(C(=O)O)CC(O)C(NC(C)=O)C(C(O)C(O)CO)O7)cc6)oc45)c3)oc2c1 [Gin-Neu-2-(S), (S)-7″,4′″-di-O-(N-acetylneuraminyl)-7,4′-di-O-methylamentoflavone]
[2]; final concentration of 1 μg/mL
  inhibitory activity against the A/Guizhou/54/89 virus sialidase: about 50%

## (R)-7″-O-(N-acetylneuraminyl)-7,4-di-O-methylamentoflavone [Gin-Neu-1-(R)]
[2]
  IC50, A/Guizhou/54/89 virus sialidase: 1 µg/mL
[2]; final concentration of 1 μg/mL
  inhibitory activity against the A/Guizhou/54/89 virus sialidase: about 50%

## (5)-7″-O-(N-acetylneuraminal)-7,4′-di-O-methylamentoflavone [Gin-Neu-1-(S)]
[2]; final concentration of 1 μg/mL
  inhibitory activity against the A/Guizhou/54/89 virus sialidase: about 50%

## COc1ccc(-c2cc(=O)c3c(O)cc(O[C@]4(C(=O)O)C[C@H](O)[C@@H](NC(C)=O)[C@H]([C@H](O)[C@H](O)CO)O4)c(-c4cc(-c5cc(=O)c6c(O)cc(OC)cc6o5)ccc4OC)c3o2)cc1 (relative stereo) [Sci-Neu-2, (S)-7″-O-(N-acetylneuraminyl)-7,4′,4′″-tri-O-methylamentoflavone]
[3]
  IC50: 5.74 µM
[3]; even at a final concentration of 10 μg/mL (second sentence of b311), read-out: inhibitory activity against the A/PR/8/34 virus sialidase
  inhibition at 10 µg/mL: ≥ 70%
[3]; read-out: inhibitory activity against the A/PR/8/34 virus sialidase, final concentration of 10 μg/mL (first sentence of b311)
  inhibition at 10 µg/mL: ≥ 80%
[2]
  IC50: 1.15 µM
[2]; final concentration of 1 μg/mL
  inhibition at 1 µg/mL: ~50%
[2]; [7]
  inhibition at 10 µg/mL: ≥ 80%
[4]; [7]
  inhibition at 10 µg/mL: 65%
[4]; final concentration of 100 μg/mL
  inhibition at 100 µg/mL: ≥ 80%
other
  melting point: 200 °C (dec.)

## COc1cc(O)c2c(=O)cc(-c3ccc(OC)c(-c4c(O)cc(O)c5c(=O)cc(-c6ccc(O)cc6)oc45)c3)oc2c1 [ginkgetin]
[1]
  cytotoxicity (cell viability by the MTT method): showed cytotoxicity

## COC(=O)C1(Oc2cc(O)c3c(=O)cc(-c4ccc(O)cc4)oc3c2-c2cc(-c3cc(=O)c4c(O)cc(OC)cc4o3)ccc2OC)CC(OC(C)=O)C(NC(C)=O)C(C(OC(C)=O)C(COC(C)=O)OC(C)=O)O1 [Gin-NeuAc-3, (S)-7,4′-di-O-methyl-7″-O-(1″″-methyl-4″″,7″″,8″″,9″″-tetra-O-acetyl-N-acetylneuraminyl)a mentoflavone]
[2]; final concentration of 1 μg/mL
  inhibitory activity against the A/Guizhou/54/89 virus sialidase: about 50%

## COc1c(O)cc(O)c2c(=O)cc(-c3ccc(O)cc3)oc12 [F36, 5,7,4′-trihydroxy-8-methoxyflavone]
Influenza virus [5]
  anti-influenza virus activity in vitro: has anti-influenza virus activity
Influenza virus [6]
  anti-influenza virus activity in vivo: has anti-influenza virus activity

## COC(=O)C1(Oc2ccc(-c3cc(=O)c4c(O)cc(OC5(C(=O)OC)C[C@H](OC(C)=O)[C@@H](NC(C)=O)[C@H]([C@H](OC(C)=O)[C@@H](COC(C)=O)OC(C)=O)O5)c(-c5cc(-c6cc(=O)c7c(O)cc(OC)cc7o6)ccc5OC)c4o3)cc2)C[C@H](OC(C)=O)[C@@H](NC(C)=O)[C@H]([C@H](OC(C)=O)[C@@H](COC(C)=O)OC(C)=O)O1 (stereo partly drawn) [Gin-NeuAc-4, (R)-7,4′-di-O-methyl-7″-O-(1″″-methyl-4″″,7″″,8″″,9″″-tetra-O-acetyl-N-acetylneuraminyl)-4′″-O-(1′″″-methyl-4′″″,7′″″,8′″″,9′″″-tetra-O-acetyl-N-acetylneuraminyl)amentoflavone]
[2]; final concentration of 1 μg/mL
  inhibitory activity against the A/Guizhou/54/89 virus sialidase: about 50%
